Test results published in article PMC6917776, “Discovery of a chemical probe for PRDM9” (Nature Communications, 2019).
“And” between values parts separate entries of the source, which are not always exact repeats. Equal entries are not always repeated.

How the values were obtained:
HEK293T cells = test: Cell growth, IncuCyte ZOOM cell number; type: cell-based; settings: for Cell growth (Cell#): technical replicates
Protocol: HEK293T or MCF7 cells were seeded on 96-well plates and the following day treated with compounds for indicated time. Cell number was determined with Vybrant® DyeCycle™ Green using IncuCyte™ ZOOM live cell imaging device (Essen Bioscence) and analyzed with IncuCyte™ ZOOM (2015A) software.
(top graphs) and MCF7 cells (bottom graph). Cells were treated with compounds for 2 and 4 days or 5 days in case of MCF7. Cell number was measured using IncuCyte™ ZOOM live cell imaging device. The results are MEAN +/- SEM, n=3 (technical replicates). Source data are provided as a Source Data file.
(1 picture or pasted object on this page, not shown here)

PRDM9 = PRDM9 (Homo sapiens, UniProt Q9NQV7); test: PRDM9 cellular assay: H3K4me3 of exogenous H3-GFP in HEK293T cells (western blot); type: cell-based
Protocol: HEK293T cells were co-transfected with H3-GFP and PRDM9-FLAG and treated with compounds at indicated concentrations for 20 h. Mut denotes PRDM9 catalytic mutant (Y357S). […] Cells were treated with compounds for 1 day. Cell number was measured using IncuCyte™ ZOOM live cell imaging device. The results are mean ± sd, n = 3. Source data are provided as a Source Data file.
HEK293T (kind gift from Sam Benchimol, York University), or MCF7 (ATCC® HTB-22™), cells were plated (12 well plates) and next day co-transfected with 0.1 (HEK293T) or 0.2 (MCF7) µg of GFP-tagged histone H3 and with 0.1 (HEK293T) or 0.2 (MCF7) µg of Flag-tagged PRDM9/PRDM9 catalytic mutant (Y357S) and 0.8 or 0.6 µg of empty vector using JetPRIME® transfection reagent, following manufacturer instructions. After 4 h media was removed and cells were treated with compounds for 20 h. Next day, cells were lysed in lysis buffer (20 mM Tris-HCl pH 8, 150 mM NaCl, 1 mM EDTA, 10 mM MgCl2, 0.5% TritonX-100, 12.5 U mL^−1 benzonase (Sigma), complete EDTA-free protease inhibitor cocktail (Roche)). After 2 min incubation at RT, SDS was added to final 1% concentration. Cell lysates were analyzed in western blot for GFP and H3K4me3 levels. All cell lines were mycoplasma negative, as determined by MycoAlert™ Mycoplasma Detection Kit (Lonza).
Total cell lysates were resolved in 4–12% Bis-Tris Protein Gels (Invitrogen) and transferred in for 1.5 h (80 V) onto PVDF membrane (Millipore) in Tris-Glycine transfer buffer containing 20% MeOH and 0.05% SDS. Blots were blocked for 1 h in blocking buffer (5% milk in PBS) and incubated with primary antibodies anti-GFP (1:3000, Clontech # 632381), anti-H3K4me3 (1:1000, Millipore, #04-745), anti-histone H3 (1:2000, #ab10799, Abcam), anti-Flag (1:5000, #F4799, Sigma) in blocking buffer (5% BSA in 0.1% Tween 20 PBS) overnight at 4 °C. After five washes with 0.1% Tween 20 PBS the blots were incubated with goat-anti rabbit (IR800) and donkey anti-mouse (IR 680) antibodies (1:5000) in Odyssey Blocking Buffer (LiCor) for 1 h at RT and washed five times with 0.1% Tween 20 PBS. The signal was read on an Odyssey scanner (LiCor) at 800 nm and 700 nm and analyzed with Image Studio Ver.5.2 software.

Chain of PRDM9 (Q9NQV7 whole entry): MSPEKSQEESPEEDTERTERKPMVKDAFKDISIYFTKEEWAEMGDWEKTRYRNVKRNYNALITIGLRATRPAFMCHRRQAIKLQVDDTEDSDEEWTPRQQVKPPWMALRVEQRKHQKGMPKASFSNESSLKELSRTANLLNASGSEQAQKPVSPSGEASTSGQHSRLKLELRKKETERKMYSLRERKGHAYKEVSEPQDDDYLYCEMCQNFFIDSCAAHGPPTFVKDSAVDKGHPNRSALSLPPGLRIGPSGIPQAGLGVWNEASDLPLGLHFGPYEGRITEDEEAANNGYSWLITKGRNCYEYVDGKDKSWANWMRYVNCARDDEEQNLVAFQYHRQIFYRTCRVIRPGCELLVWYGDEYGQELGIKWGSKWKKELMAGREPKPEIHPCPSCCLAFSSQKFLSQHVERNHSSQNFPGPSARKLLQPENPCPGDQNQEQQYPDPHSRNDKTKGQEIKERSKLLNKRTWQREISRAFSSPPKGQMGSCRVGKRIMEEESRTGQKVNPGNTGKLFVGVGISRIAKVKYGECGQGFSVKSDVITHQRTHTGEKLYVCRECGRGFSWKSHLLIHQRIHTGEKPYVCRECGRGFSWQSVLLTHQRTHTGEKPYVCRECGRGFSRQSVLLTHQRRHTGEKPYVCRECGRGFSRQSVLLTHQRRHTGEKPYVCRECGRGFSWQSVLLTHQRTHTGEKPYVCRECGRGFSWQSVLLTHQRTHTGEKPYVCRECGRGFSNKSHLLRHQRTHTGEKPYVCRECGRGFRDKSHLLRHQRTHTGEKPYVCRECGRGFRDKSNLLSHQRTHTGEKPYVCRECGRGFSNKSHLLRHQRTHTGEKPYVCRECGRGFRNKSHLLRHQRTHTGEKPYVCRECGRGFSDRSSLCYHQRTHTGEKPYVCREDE

Compound: COc1cc(OC)cc(-c2noc(N3CCN(C)C4(CCN(c5ccccc5)CC4)C3)n2)c1 [MRK-740-NC]
- HEK293T cell growth, toxicity (in words) (HEK293T cells; 10 µM, 24 h of treatment): some toxicity
- HEK293T cytotoxicity (in words) (HEK293T cells; 10 µM, 4 days of treatment): cytotoxicity was observed
- Cell growth (Cell#) (HEK293T cells; HEK293, 2 day treatement, 1 µM): 131.284 % control and 117.713 % control and 90.9177 % control
- Cell growth (Cell#) (HEK293T cells; HEK293, 2 day treatement, 3 µM): 132.069 % control and 120.302 % control and 91.1588 % control
- Cell growth (Cell#) (HEK293T cells; HEK293, 2 day treatement, 5 µM): 115.543 % control and 108.951 % control and 80.3231 % control
- Cell growth (Cell#) (HEK293T cells; HEK293, 2 day treatement, 10 µM): 46.5996 % control and 35.6574 % control and 30.4049 % control
- Cell growth (Cell#) (HEK293T cells; HEK293, 4 day treatement, 0.3 µM): 101.286 % control and 102.18 % control and 103.656 % control
- Cell growth (Cell#) (HEK293T cells; HEK293, 4 day treatement, 1 µM): 105.145 % control and 104.341 % control and 101.342 % control
- Cell growth (Cell#) (HEK293T cells; HEK293, 4 day treatement, 3 µM): 105.432 % control and 102.893 % control and 103.306 % control
- Cell growth (Cell#) (HEK293T cells; HEK293, 4 day treatement, 10 µM): 42.1082 % control and 39.7636 % control and 39.5419 % control
- IC50 (PRDM9; H3-GFP and PRDM9-FLAG co-transfected, 20 h of treatment, read-out: IC50, PRDM9-dependent trimethylation of ectopic H3K4): > 10 µM
- remaining activity at 0.256 µM (PRDM9; HEK-293T, 20 h, 0.256 µM, Figure 6b, replicates, read-out: H3K4me3/GFP - western blot, % control): 100%
- remaining activity at 0.64 µM (PRDM9; HEK-293T, 20 h, 0.64 µM, Figure 6b, replicates, read-out: H3K4me3/GFP - western blot, % control): 89.9%
- remaining activity at 1.6 µM (PRDM9; HEK-293T, 20 h, 1.6 µM, Figure 6b, replicates, read-out: H3K4me3/GFP - western blot, % control): 103%
- remaining activity at 3.33334 µM (PRDM9; HEK-293T, 20 h, 3.33334 µM, Figure 6b, replicates, read-out: H3K4me3/GFP - western blot, % control): 113%
- remaining activity at 4 µM (PRDM9; HEK-293T, 20 h, 4 µM, Figure 6b, replicates, read-out: H3K4me3/GFP - western blot, % control): 111%
- remaining activity at 10 µM (PRDM9; HEK-293T, 20 h, 10 µM, Figure 6b, replicates, read-out: H3K4me3/GFP - western blot, % control): 116%
